According to patent publication US20250205312A1, “Orally Available Albenatide” (AlbuNext, LLC, priority 2023, published 2025):
Several values for one entry are separate records, joined by “and”; a condition that tells them apart may be missing. Identical values can stand only once.

System: db/db mice
Assay: Pharmacodynamics study: blood glucose level-time profiles after single treatment
Format: in vivo
Details: SC 0.8 mg/kg
Text: For pharmacodynamics studies, db/db mice were randomly divided into 5 groups (n=3). The test article preparation and dosing procedure followed the same way as described in PK study above. The study protocol is described in Table 6.

Substance: CJC-1134 [CJC-1134-SC]
- Blood Glucose AUC, Mean (db/db mice (n=3)): 364.1 mmol·h/L
- Blood Glucose Level, Mean (db/db mice (n=3), 0 h after fasting): 15.2 mmol/L
- Blood Glucose Level, Mean (db/db mice (n=3), 0.25 h): 22.4 mmol/L
- Blood Glucose Level, Mean (db/db mice (n=3), 0.5 h): 19.6 mmol/L
- Blood Glucose Level, Mean (db/db mice (n=3), 1 h): 14.6 mmol/L
- Blood Glucose Level, Mean (db/db mice (n=3), 3 h): 13.5 mmol/L
- Blood Glucose Level, Mean (db/db mice (n=3), 6 h): 16.3 mmol/L
- Blood Glucose Level, Mean (db/db mice (n=3), 8 h): 13.0 mmol/L
- Blood Glucose Level, Mean (db/db mice (n=3), 24 h): 17.4 mmol/L
- Blood Glucose Level (db/db mice, 0 h after fasting, individual mice, 0.8 mg/kg): 8.7 mmol/L and 16.4 mmol/L and 20.6 mmol/L
- Blood Glucose Level (db/db mice, 0.25 h, individual mice, 0.8 mg/kg): 20.5 mmol/L and 21.2 mmol/L and 25.6 mmol/L
- Blood Glucose Level (db/db mice, 0.5 h, individual mice, 0.8 mg/kg): 18.8 mmol/L and 21.0 mmol/L and 19.0 mmol/L
- Blood Glucose Level (db/db mice, 1 h, individual mice, 0.8 mg/kg): 11.5 mmol/L and 16.5 mmol/L and 15.9 mmol/L
- Blood Glucose Level (db/db mice, 3 h, individual mice, 0.8 mg/kg): 10.4 mmol/L and 14.0 mmol/L and 16.1 mmol/L
- Blood Glucose Level (db/db mice, 6 h, individual mice, 0.8 mg/kg): 12.7 mmol/L and 18.7 mmol/L and 17.5 mmol/L
- Blood Glucose Level (db/db mice, 8 h, individual mice, 0.8 mg/kg): 11.3 mmol/L and 16.3 mmol/L and 11.4 mmol/L
- Blood Glucose Level (db/db mice, 24 h, individual mice, 0.8 mg/kg): 17.0 mmol/L and 16.9 mmol/L and 18.4 mmol/L
- Blood Glucose AUC (db/db mice, individual mice, 0.8 mg/kg): 323.1 mmol·h/L and 399.5 mmol·h/L and 369.8 mmol·h/L
